Molecular target: Mu opioid receptor (Homo sapiens, UniProt P35372)
Sequence (P35372 whole entry): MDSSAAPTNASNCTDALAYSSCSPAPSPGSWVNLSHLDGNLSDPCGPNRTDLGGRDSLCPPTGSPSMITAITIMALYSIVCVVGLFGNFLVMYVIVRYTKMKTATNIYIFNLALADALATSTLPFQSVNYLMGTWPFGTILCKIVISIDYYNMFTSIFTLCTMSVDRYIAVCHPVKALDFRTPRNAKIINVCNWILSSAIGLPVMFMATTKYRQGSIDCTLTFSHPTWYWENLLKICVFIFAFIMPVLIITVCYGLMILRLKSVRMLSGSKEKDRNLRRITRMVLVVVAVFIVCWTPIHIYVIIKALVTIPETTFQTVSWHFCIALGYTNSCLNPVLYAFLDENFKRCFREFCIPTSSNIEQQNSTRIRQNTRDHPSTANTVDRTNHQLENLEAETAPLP

C[C@@H](NC(=O)[C@@H](N)Cc1ccc(O)cc1)C(=O)NCC(=O)N(C)[C@@H](Cc1ccccc1)C(=O)NCCO [DAMGO Control, DAMGO]
Functional GTPgS Mu Efficacy % DAMGO: 100 ± 0%
